The values that follow come from ChEMBL document CHEMBL3137667, “[Drug-induced liver injury; fourteenth updated edition of the bibliographic database of liver injuries and related drugs]” (Gastroenterol Clin Biol, 2004).

The conditions of data set [1]: human.
Data set [2] is described as follows: Times to onset, minimal and maximal, observed in the indexed observations. [column 'DELAI' in source]. The settings on record: human.
For data set [3] the following is noted: human. This is another data set of the same source.
The conditions of data set [4]: human. This is another data set of the same source.
A short description of data set [5]: Highest frequency of acute liver toxicity observed during clinical trials, expressed as a percentage. [column '% AIGUE' in source]. The settings on record: human.
The conditions of data set [6]: human. This is another data set of the same source.
The conditions of data set [7]: human, serum.
The conditions of data set [8]: human. The source holds these as a separate data set.
The conditions of data set [9]: human. This is another data set of the same source.
For data set [10] the following is noted: human, serum, 4383 h.
The conditions of data set [11]: human, serum. The source holds these as a separate data set.
For data set [12] the following is noted: human. The source holds these as a separate data set.
The conditions of data set [13]: human. This is another data set of the same source.
For data set [14] the following is noted: human. This is another data set of the same source.
The nature of data set [15]: Highest frequency of moderate liver toxicity observed during clinical trials, expressed as a percentage. [column '% BIOL' in source]. The following applies: human.
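Throughout, for Hepatotoxicity (association with vascular disease): count of indexed literature references reporting vascular liver injury in humans, e.g. peliosis hepatitis, hepatic veno-occlusive disease or Budd-Chiari syndrome.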
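Throughout, for Hepatotoxicity (benign tumour): value is a count of indexed literature references citing a benign tumour confirmed by histopathology.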
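Throughout, for Hepatotoxicity (choleostasis): human cholestatic liver injury, shown by histopathology or by peak ALT or AST elevation over alkaline phosphatase ratio below 2, value counts indexed literature reports.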
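Throughout, for Hepatotoxicity (chronic liver disease): chronic liver injury confirmed by histopathology or persistently raised serum aminotransferase activity beyond 6 months, value given as the count of indexed literature references.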
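Throughout, for Hepatotoxicity (cirrhosis): value is a count of indexed literature references reporting cirrhosis confirmed by histopathology.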
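Throughout, for Hepatotoxicity (cytolytic): human cytolytic liver injury, shown by histopathology or by a ratio above 5 of peak ALT or AST elevation to alkaline phosphatase elevation, value counts indexed references.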
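Throughout, for Hepatotoxicity (granulomatous hepatitis): value is a count of indexed literature references reporting granulomatous liver disease confirmed by histopathology.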
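Throughout, for Hepatotoxicity (malignant tumour): malignant tumour confirmed by histopathology, value gives the count of indexed literature references reporting it.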
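Throughout, for Hepatotoxicity (severe hepatitis): human clinical data: severe hepatitis, meaning potentially life-threatening liver failure or clinically observed cases, the value counts how many indexed literature references report it.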
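Throughout, for Hepatotoxicity (steatosis): steatosis confirmed by histopathology, value is the count of indexed references.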

For `COc1ccnc(C[S+]([O-])c2nc3ccc(OC(F)F)cc3[nH]2)c1OC` (stereo not given) [PANTOPRAZOLE], the “Hepatotoxicity (association with vascular disease)” value in [1] came to 0. The “Hepatotoxicity (time to onset)” value in data set [2] was found to be 2 days - 8 days. The “Hepatotoxicity (malignant tumour)” value in data set [3] worked out at 0. Moreover, the “Hepatotoxicity (benign tumour)” value in data set [4] is 0. Also, the “Hepatotoxicity (acute)” value in data set [5] is listed as 0%; in data set [7] it was 2. In data set [6], the “Hepatotoxicity (steatosis)” value turned out to be 0. Further, the “Hepatotoxicity (cirrhosis)” value in [8] amounted to 0. The “Hepatotoxicity (granulomatous hepatitis)” value in data set [9] was determined as 0. Besides, the “Hepatotoxicity (chronic liver disease)” value in data set [10] was found to be 0. The results for the “Hepatotoxicity (moderate)” value in [11] and in data set [15] were 13 and 8.3%, respectively. Further, the “Hepatotoxicity (cytolytic)” value in data set [12] was found to be 2. Moreover, in [13], the “Hepatotoxicity (severe hepatitis)” value turned out to be 1. Also, in [14], the “Hepatotoxicity (choleostasis)” value is 0.

As to `CC[C@@H](CO)NC(=O)[C@@H]1C=C2c3cccc4c3c(cn4C)C[C@H]2N(C)C1` [METHYSERGIDE], the “Hepatotoxicity (association with vascular disease)” value in data set [1] came to 0. Moreover, in data set [2], the “Hepatotoxicity (time to onset)” value stood at 5 years. The “Hepatotoxicity (malignant tumour)” value in [3] worked out at 0. Besides, the “Hepatotoxicity (benign tumour)” value in data set [4] turned out to be 0. The “Hepatotoxicity (acute)” value in data set [5] stood at 0%; in [7], 0. Besides, in data set [6], the “Hepatotoxicity (steatosis)” value is 0. Besides, the “Hepatotoxicity (cirrhosis)” value in data set [8] came out at 0. Moreover, in data set [9], the “Hepatotoxicity (granulomatous hepatitis)” value is on record as 0. In addition, the “Hepatotoxicity (chronic liver disease)” value in [10] is given as 0. Moreover, the “Hepatotoxicity (moderate)” value in data set [11] worked out at 1; in data set [15] it was 0%. Moreover, in data set [12], the “Hepatotoxicity (cytolytic)” value is given as 0. For the same compound, the “Hepatotoxicity (severe hepatitis)” value in [13] came out at 0. Besides, the “Hepatotoxicity (choleostasis)” value in data set [14] amounted to 0.

For `CN1C2CCCC1CC(NC(=O)c1nn(C)c3ccccc13)C2` (stereo not given) [GRANISETRON], the “Hepatotoxicity (association with vascular disease)” value in data set [1] amounted to 0. The “Hepatotoxicity (time to onset)” value in data set [2] amounted to 1 week. The “Hepatotoxicity (malignant tumour)” value in [3] is 0. The “Hepatotoxicity (benign tumour)” value in data set [4] was determined as 0. Besides, the “Hepatotoxicity (acute)” value is 0% in data set [5] and 0 in data set [7]. Besides, the “Hepatotoxicity (steatosis)” value in data set [6] stood at 0. Also, in data set [8], the “Hepatotoxicity (cirrhosis)” value is given as 0. In addition, the “Hepatotoxicity (granulomatous hepatitis)” value in [9] is listed as 0. Further, the “Hepatotoxicity (chronic liver disease)” value in [10] amounted to 0. The results for the “Hepatotoxicity (moderate)” value in data set [11] and in data set [15] were 2 and 7.9%, respectively. Besides, the “Hepatotoxicity (cytolytic)” value in [12] amounted to 0. In data set [13], the “Hepatotoxicity (severe hepatitis)” value came to 0. The “Hepatotoxicity (choleostasis)” value in data set [14] stood at 0.

Regarding `CN1CCN(C2=Nc3ccccc3Oc3ccc(Cl)cc32)CC1` [LOXAPINE], the “Hepatotoxicity (association with vascular disease)” value in [1] stood at 0. Besides, in [2], the “Hepatotoxicity (time to onset)” value amounted to 1 week - 3 weeks. Besides, the “Hepatotoxicity (malignant tumour)” value in [3] stood at 0. Further, the “Hepatotoxicity (benign tumour)” value in data set [4] is reported as 0. The “Hepatotoxicity (acute)” value in data set [5] is 0%; in [7] it was 1. In addition, the “Hepatotoxicity (steatosis)” value in data set [6] turned out to be 0. In addition, the “Hepatotoxicity (cirrhosis)” value in [8] came to 0. Besides, the “Hepatotoxicity (granulomatous hepatitis)” value in [9] stood at 0. Besides, the “Hepatotoxicity (chronic liver disease)” value in [10] came out at 0. Moreover, the “Hepatotoxicity (moderate)” value in data set [11] is 2; in [15] it was 0%. Also, the “Hepatotoxicity (cytolytic)” value in data set [12] is on record as 0. Besides, in data set [13], the “Hepatotoxicity (severe hepatitis)” value worked out at 0. Also, the “Hepatotoxicity (choleostasis)” value in data set [14] is listed as 1.

Turning to DALTEPARIN SODIUM, the “Hepatotoxicity (association with vascular disease)” value in data set [1] amounted to 0. For the same compound, the “Hepatotoxicity (time to onset)” value in data set [2] is given as 4 days. Further, the “Hepatotoxicity (malignant tumour)” value in data set [3] was determined as 0. In addition, in [4], the “Hepatotoxicity (benign tumour)” value amounted to 0. Moreover, the “Hepatotoxicity (acute)” value in data set [5] came to 0%; in [7], 0. Further, in data set [6], the “Hepatotoxicity (steatosis)” value is listed as 0. The “Hepatotoxicity (cirrhosis)” value in data set [8] is recorded as 0. For the same compound, the “Hepatotoxicity (granulomatous hepatitis)” value in [9] was found to be 0. The “Hepatotoxicity (chronic liver disease)” value in data set [10] was determined as 0. For the same compound, the “Hepatotoxicity (moderate)” value amounted to 3 in data set [11] and 2.6% in data set [15]. Further, in data set [12], the “Hepatotoxicity (cytolytic)” value is on record as 0. In addition, the “Hepatotoxicity (severe hepatitis)” value in [13] is on record as 0. Besides, the “Hepatotoxicity (choleostasis)” value in [14] stood at 0.

Consider `CC(O)(CS(=O)(=O)c1ccc(F)cc1)C(=O)Nc1ccc(C#N)c(C(F)(F)F)c1` (stereo not given) [BICALUTAMIDE], for which, in [1], the “Hepatotoxicity (association with vascular disease)” value turned out to be 0. The “Hepatotoxicity (time to onset)” value in [2] is given as 2 days. For the same compound, in data set [3], the “Hepatotoxicity (malignant tumour)” value was determined as 0. Further, in [4], the “Hepatotoxicity (benign tumour)” value is 0. The figures for the “Hepatotoxicity (acute)” value in [5] and in data set [7] were 0% and 1, respectively. Moreover, the “Hepatotoxicity (steatosis)” value in data set [6] is given as 0. Besides, the “Hepatotoxicity (cirrhosis)” value in data set [8] worked out at 0. In addition, the “Hepatotoxicity (granulomatous hepatitis)” value in [9] was 0. Besides, the “Hepatotoxicity (chronic liver disease)” value in [10] came out at 0. Besides, the “Hepatotoxicity (moderate)” value was 1 in data set [11] and 6% in [15]. Also, in data set [12], the “Hepatotoxicity (cytolytic)” value turned out to be 1. Also, the “Hepatotoxicity (severe hepatitis)” value in data set [13] is recorded as 1. Further, the “Hepatotoxicity (choleostasis)” value in [14] is reported as 0.

Consider `CCC(=O)O[C@@H]1CC(=O)O[C@H](C)C/C=C/C=C/[C@H](O)[C@H](C)C[C@H](CC=O)[C@H](O[C@@H]2O[C@H](C)[C@@H](O[C@H]3C[C@@](C)(O)[C@@H](OC(=O)CC)[C@H](C)O3)[C@H](N(C)C)[C@H]2O)[C@H]1OC` [MIDECAMYCIN], for which, in [1], the “Hepatotoxicity (association with vascular disease)” value was determined as 0. For the same compound, the “Hepatotoxicity (time to onset)” value in [2] was 1 days. In [3], the “Hepatotoxicity (malignant tumour)” value was determined as 0. Further, the “Hepatotoxicity (benign tumour)” value in data set [4] is reported as 0. For the same compound, the entries for the “Hepatotoxicity (acute)” value in data set [5] and in data set [7] were 0% and 1, respectively. The “Hepatotoxicity (steatosis)” value in data set [6] worked out at 0. Moreover, the “Hepatotoxicity (cirrhosis)” value in data set [8] is given as 0. Further, in data set [9], the “Hepatotoxicity (granulomatous hepatitis)” value stood at 0. In addition, in data set [10], the “Hepatotoxicity (chronic liver disease)” value came to 0. In addition, the “Hepatotoxicity (moderate)” value in data set [11] was found to be 3; in data set [15] it was 2.3%. Besides, in data set [12], the “Hepatotoxicity (cytolytic)” value was 1. Moreover, the “Hepatotoxicity (severe hepatitis)” value in data set [13] was 1. Moreover, the “Hepatotoxicity (choleostasis)” value in data set [14] stood at 0.

Consider `C[C@]12CCC(=O)C=C1CC[C@@H]1[C@@H]2[C@@H](O)C[C@@]2(C)[C@H]1CC[C@]2(O)C(=O)CO` [HYDROCORTISONE], for which the “Hepatotoxicity (association with vascular disease)” value in [1] is recorded as 0. Further, the “Hepatotoxicity (time to onset)” value in data set [2] came to 2 months. The “Hepatotoxicity (malignant tumour)” value in data set [3] was found to be 0. Further, the “Hepatotoxicity (benign tumour)” value in data set [4] amounted to 0. In addition, the “Hepatotoxicity (acute)” value in [5] stood at 0%; in [7] it was 0. The “Hepatotoxicity (steatosis)” value in data set [6] was determined as 10. The “Hepatotoxicity (cirrhosis)” value in [8] is listed as 0. Also, in data set [9], the “Hepatotoxicity (granulomatous hepatitis)” value worked out at 0. The “Hepatotoxicity (chronic liver disease)” value in [10] was found to be 0. In addition, the “Hepatotoxicity (moderate)” value was determined as 1 in data set [11] and 25% in data set [15]. In addition, the “Hepatotoxicity (cytolytic)” value in [12] is 0. Further, the “Hepatotoxicity (severe hepatitis)” value in data set [13] was determined as 1. Further, in data set [14], the “Hepatotoxicity (choleostasis)” value worked out at 0.
